These results are taken from EP0935963A2, “The use of MMP-13 selective inhibitors for the treatment of osteoarthritis and other matrix metalloproteinase-mediated disorders” (Pfizer Products Inc., priority 1997, dated 1999).

Read-outs that look alike come from different tables or passages of the source.

The conditions of series [1]: clinical trial data, Proceedings of ASCO, 15, 490 (1996); cited from earlier work.
Series [2] has as its system bovine nasal cartilage explants. Description: IL-1 Induced Cartilage Collagen Degradation From Bovine Nasal Cartilage (cartilage explant assay). It counts as cell-based. The following applies: Bos taurus. An excerpt: This assay uses bovine nasal cartilage explants which are commonly used to test the efficacy of various compounds to inhibit either IL-1 induced proteoglycan degradation or IL-1 induced collagen degradation. Bovine nasal cartilage is a tissue that is very similar to articular cartilage, i.e. chondrocytes surrounded by a matrix that is primarily type II collagen and aggrecan. The tissue is used because it: (1) is very similar to articular cartilage, (2) is readily available, (3) is relatively homogeneous, and (4) degrades with predictable kinetics after IL-1 stimulation.
Two variations of this assay have been used to assay compounds. Both variations give similar data. The two variations are described below:
Three plugs of bovine nasal cartilage (approximately 2 mm diameter x 1.5 mm long) are placed into each well of a 24 well tissue culture plate. One ml of serumless medium is then added to each well. Compounds are prepared as 10 mM stock solutions in DMSO and then diluted appropriately in serumless medium to final concentrations, e.g., 50, 500 and 5000 nM. Each concentration is assayed in triplicate.
Human recombinant IL-1α (5ng/mL) (IL-1) is added to triplicate control wells and to each well containing drug. Triplicate control wells are also set up in which neither drug nor IL-1 are added. The medium is removed and fresh medium containing IL-1 and the appropriate drug concentrations is added on days 6, 12, 18 and 24 or every 3 - 4 days if necessary. The media removed at each time point is stored at -20°C for later analysis. When the cartilage in the IL-1 alone wells has almost completely resorbed (about day 21), the experiment is terminated. The medium, is removed and stored. Aliquots (100 ul) from each well at each time point are pooled, digested with papain and then analyzed for hydroxyproline content. Background hydroxyproline (average of wells with no IL-1 and no drug) is subtracted from each data point and the average calculated for each triplicate. The data is then expressed as a percent of the IL-1 alone average value and plotted. The IC50 is determined from this plot.
The experimental set-up is the same as outlined above in Variation 1, until day 12. On day 12, the conditioned medium from each well is removed and frozen. Then one ml of phosphate buffered saline (PBS) containing 0.5 µg/ml trypsin is added to each well and incubation continued for a further 48 hours at 37°C. After 48 hours incubation in trypsin, the PBS solution is removed. Aliquots (50 µl) of the PBS/trypsin solution and the previous two time points (days 6 and 12) are pooled. hydrolyzed and hydroxyproline content determined. Background hydroxyproline (average of wells with no IL-1 and no drug) is subtracted from each data point and the average calculated for each triplicate. The data is then expressed as a percent of the IL-1 alone average value and plotted. The IC50 is determined from this plot. In this variation, the time course of the experiment is shortened considerably. The addition of trypsin for 48 hours after 12 days of IL-1 stimulation likely releases any type II collagen that has been damaged by collagenase activity but not yet released from the cartilage matrix. In the absence of IL-1 stimulation, trypsin treatment produces only low background levels of collagen degradation in the cartilage explants.

Series [3] concerns cartilage conditioned medium collagenase activity. Description: Collagen film assay with cartilage conditioned medium as enzyme source. It is filed as biochemical. How it is done:
(§1) Rat type I collagen is radiolabeled with ^14C acetic anhydride (T.E. Cawston and A.J. Barrett, Anal. Biochem., 99, 340-345 (1979)) and used to prepare 96 well plates containing radiolabeled collagen films (Barbara Johnson-Wint, Anal. Biochem., 104, 175-181 (1980)). When a solution containing collagenase is added to the well, the enzyme cleaves the insoluble collagen which unwinds and is thus solubilized. Collagenase activity is directly proportional to the amount of collagen solubilized, determined by the proportion of radioactivity released into the supernatant as measured in a standard scintillation counter. Collagenase inhibitors are, therefore, compounds which reduce the radioactive counts released with respect to the controls with no inhibitor present. One specific embodiment of this assay is described in detail below.
(§2) Stock solutions of test compound (10mM) in dimethylsulfoxide are prepared. Dilutions of the test compounds in the Tris buffer, above, are made to 0.2, 2.0, 20, 200, 2000 and 20000 nM.
(§3) 100 µl of appropriate drug dilution and 100 µl of diluted enzyme are pipetted into wells of a 96 well plate containing collagen films labeled with ^14C-collagen. The final enzyme concentration is 0.3 µg/ml while the final drug concentration is 0.1, 1.0, 10, 100, 1000 nM. Each drug concentration and control is analyzed in triplicate. Triplicate controls are also run for the conditions in which no enzyme is present and for enzyme in the absence of any compound.
(§4) The plates are incubated at 37°C for a time period such that around 30 - 50% of the available collagen is solubilized - determined by counting additional control wells at various time points. In most cases around 9 hours of incubation are required. When the assay has progressed sufficiently, the supernatant from each well is removed and counted in a scintillation counter. The background counts (determined by the counts in the wells with no enzyme) are subtracted from each sample and the % release calculated in relation to the wells with enzyme only and no inhibitor. The triplicate values for each point are averaged and the data graphed as percent release versus drug concentration. IC50's are determined from the point at which 50% inhibition of release of radiolabeled collagen is obtained.
To determine the identity of the active collagenases in cartilage conditioned medium, assays were carried out using collagen as a substrate, cartilage conditioned medium containing collagenase activity and inhibtors of varying selectivity. The cartilage conditioned medium was collected during the time at which collagen degradation was occurring and thus is representative of the collagenases responsible for the collagen breakdown. Assays were carried out as outlined above except that instead of using recombinant MMP-13 or recombinant MMP-1, cartilage conditioned medium was the enzyme source. […]

Series [4] addresses T1, MMP-13 (Homo sapiens, UniProt P45452). Description: Inhibition of MMP-13, fluorescence assay. It is filed as biochemical. How it is done: Human recombinant MMP-13 is activated with 2 mM APMA (p-aminophenyl mercuric acetate) for 1.5 hours, at 37°C and is then diluted to […] in assay buffer (50 mM Tris, pH 7.5, 200 mM sodium chloride, 5mM calcium chloride, 20µM zinc chloride, 0.02% Brij 35). Twenty-five microliters of diluted enzyme is added per well of a 96 well microfluor plate. The enzyme is then diluted in a 1:4 ratio in the assay by the addition of inhibitor and substrate to give a final concentration in the assay of 60 ng/ml.
Stock solutions (10 mM) of inhibitors are made up in dimethylsulfoxide and then diluted in assay buffer as per the inhibitor dilution scheme for inhibition of human collagenase-1. Twenty-five microliters of each concentration is added to triplicate wells of a microfluor plate. The final concentrations in the assay are 30 µM, 3 µM, 0.3 µM, and 0.03 µM.
Substrate (Dnp-Pro-Cha-Gly-Cys(Me)-His-Ala-Lys(NMA)-NH2) is prepared as for inhibition of human collagenase (MMP-1) and […] is added to each well to give a final assay concentration of 10 µM. Fluorescence readings (360 nm excitation; 450 nm emission) are taken at time 0 and every 5 minutes for 1 hour.
Positive controls and negative controls are set up in triplicate as outlined in the MMP-1 assay.
IC50's are determined as per inhibition of human collagenase (MMP-1). If IC50's are reported to be less than […], inhibitors are then assayed at final concentrations of 0.3 µM, 0.03 µM, 0.003 µM and 0.0003 µM.

Series [5] concerns the target T1, MMP-13. Description: biochemical. The protocol:
as §1, with “Collagenase activity is directly proportional to the amount of collagen solubilized, determined by the proportion of radioactivity released into the supernatant as measured in a standard scintillation counter.” left out
(§5) For determining the selectivity of compounds for MMP-13 versus MMP-1 using collagen as a substrate, the following procedure is used. Recombinant human proMMP-13 or proMMP-1 is activated according to the procedures outlined in Experiment 1. The activated MMP-13 or MMP-1 is diluted to 0.6 ug/ml with buffer ( 50 mM Tris pH 7.5, 150 mM NaCI, 10 mM CaCl2, 1 uM ZnCl2, 0.05% Brij-35, 0.02% sodium azide).
as §2, §3, §4

The target of series [6] is T2, Human recombinant collagenase-1 (Homo sapiens, UniProt P03956).
T2 sequence (P03956 100-469): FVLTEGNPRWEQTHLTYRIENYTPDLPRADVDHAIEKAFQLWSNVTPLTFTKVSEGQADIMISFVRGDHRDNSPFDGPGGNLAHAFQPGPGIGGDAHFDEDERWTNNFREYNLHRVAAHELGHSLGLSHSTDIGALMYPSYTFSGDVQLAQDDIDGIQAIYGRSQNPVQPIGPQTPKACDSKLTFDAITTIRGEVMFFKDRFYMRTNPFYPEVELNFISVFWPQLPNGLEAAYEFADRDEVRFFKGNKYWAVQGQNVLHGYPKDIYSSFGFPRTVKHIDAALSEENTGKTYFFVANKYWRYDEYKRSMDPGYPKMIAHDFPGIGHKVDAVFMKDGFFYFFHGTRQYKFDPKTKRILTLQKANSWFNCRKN
Description: Inhibition of Human Collagenase (MMP-1), fluorescence assay. It counts as biochemical. The protocol: Human recombinant collagenase-1 is activated with trypsin.
The final concentration of inhibitor will be a 1:4 dilution after addition of enzyme and substrate.
Final concentration of collagenase in the assay is 60 ng/ml.
Fluorescence versus time is then plotted for both the blank and collagenase containing samples (data from triplicate determinations is averaged). […] The zero time is used as a blank for each compound at each concentration and these values are subtracted from the 120 minute data.

For a further series, the target named is T3, MMP-1 (Homo sapiens, UniProt P03956).
T3 sequence (P03956 100-469): T2 sequence (P03956 100-469)
Description: biochemical. The protocol: as §1, with “Collagenase activity is directly proportional to the amount of collagen solubilized, determined by the proportion of radioactivity released into the supernatant as measured in a standard scintillation counter.” left out
as §5, §2, §3, §4

The mark [7] stands for this setting: 504 h, Variation 1: IL-1 stimulation until about day 21, hydroxyproline content, read-out: Cartilage Explant Assay IC50 Variation 1.
Setting [8] is: read-out: Average IC50 (variation 1 and 2), average of variation 1 and 2.
Setting [9] is: Variation 2: 12 days IL-1, then trypsin 48 hours, hydroxyproline content, read-out: Cartilage Explant Assay IC50 Variation 2.
[10] abbreviates: Table 2, collagen film substrate.
[11] abbreviates: Table 3 (repeated for comparison).

In the case of `CNC(=O)[C@@H](NC(=O)[C@H](CC(C)C)[C@H](O)C(=O)NO)C(C)(C)C` [marimastat], the “connective tissue side effects” value in series [1] is reported as “significant dose-related connective tissue side effects”.

As for `CNC(=O)[C@H](Cc1ccc(OC)cc1)NC(=O)C(CC(=O)NO)CC(C)C` (stereo partly drawn) [Example 1, reference compound], the half-inhibitory concentration (IC50) in series [2] (setting [7]) was 60 nM; in series [2] (setting [8]), 90 nM; in series [2] (setting [9]), 50 nM; in series [3] (setting [10]), 10 nM; in series [3] (setting [11]) it was 10 nM; against MMP-13 [4] it was 1.5 nM. Further, half-maximal inhibition at MMP-13 [5] (IC50) was put at 1.5 nM. Moreover, in series [3], the “inhibition of the cartilage conditioned medium collagenase activity (in words)” value (“inhibition” for short) is recorded as “potent inhibitor”.

For the compound `CNC(=O)C(Cc1ccc(OC)cc1)NC(=O)C(CCCCOc1ccccc1)CP(=O)(O)Cc1ccc(Cc2ccccc2)cc1` (stereo not drawn) [Example 3], the IC50 in series [2] (setting [9]) is 830 nM; in series [6], 21700 nM; in series [3] (setting [10]), 400 nM; in series [3] (setting [11]), 400 nM; against MMP-13 [4], 70 nM; against MMP-1, 40000 nM. The 50% inhibitory concentration (IC50) against MMP-13 [5] turned out to be 40 nM. The “inhibition” value in series [3] was “potent inhibitors”.

Consider `O=C(CN(Cc1cccnc1)S(=O)(=O)c1ccc(OCc2ccccc2)cc1)NO` [Example 2], for which the IC50 turned out to be 900 nM in series [2] (setting [7]); 725 nM in series [2] (setting [8]); 550 nM in series [2] (setting [9]); 17700 nM in series [6] (fluorescent peptide substrate, read-out: MMP-1 Fluor. IC50); 220 nM in series [3] (setting [10]); 220 nM in series [3] (setting [11]). In addition, the IC50 at MMP-13 [4] (fluorescent peptide substrate, read-out: MMP-13 Fluor. IC50) stood at 5.4 nM; on MMP-1 (Table 2, type I collagen film substrate, read-out: MMP-1 Type I Collagen IC50), 22000 nM; on MMP-13 [5] (Table 2, type I collagen film substrate, read-out: MMP-13 Type 1 Collagen IC50), 52 nM. For the same compound, the “inhibition” value in series [3] is on record as “potent inhibitors”.
